# Literature values, collected in patent publication US20220001038A1, “CONJUGATES FOR DETECTION OF AXILLARY LYMPH NODE METASTASES” (H. LEE MOFFITT CANCER CENTER AND RESEARCH INSTITUTE, INC., priority 2017, published 2022).
# Tested on: hCA IX and XII
smiles,measurement,value
[N-]=[N+]=NCCCCCCOc1ccc(-c2nn(-c3ccccc3)cc2-c2nc3ccccc3[nH]2)cc1 [compound 6],affinity/selectivity for CAIX and CAXII (in words),inhibitor with hCA IX and XII selectivity
